Assays:
[1] = target: T1, GHR (Homo sapiens, UniProt P10912); assay: Endogenous GHR levels in IM-9 human B lymphoblasts (immunoprecipitation); assay type: cell-based; details: for levels of GHR: IM-9 lymphoblasts, in 4 h
T1 construct: endogenous in cells; host or cells: IM-9 human B lymphoblasts
T1 sequence (P10912 19-638): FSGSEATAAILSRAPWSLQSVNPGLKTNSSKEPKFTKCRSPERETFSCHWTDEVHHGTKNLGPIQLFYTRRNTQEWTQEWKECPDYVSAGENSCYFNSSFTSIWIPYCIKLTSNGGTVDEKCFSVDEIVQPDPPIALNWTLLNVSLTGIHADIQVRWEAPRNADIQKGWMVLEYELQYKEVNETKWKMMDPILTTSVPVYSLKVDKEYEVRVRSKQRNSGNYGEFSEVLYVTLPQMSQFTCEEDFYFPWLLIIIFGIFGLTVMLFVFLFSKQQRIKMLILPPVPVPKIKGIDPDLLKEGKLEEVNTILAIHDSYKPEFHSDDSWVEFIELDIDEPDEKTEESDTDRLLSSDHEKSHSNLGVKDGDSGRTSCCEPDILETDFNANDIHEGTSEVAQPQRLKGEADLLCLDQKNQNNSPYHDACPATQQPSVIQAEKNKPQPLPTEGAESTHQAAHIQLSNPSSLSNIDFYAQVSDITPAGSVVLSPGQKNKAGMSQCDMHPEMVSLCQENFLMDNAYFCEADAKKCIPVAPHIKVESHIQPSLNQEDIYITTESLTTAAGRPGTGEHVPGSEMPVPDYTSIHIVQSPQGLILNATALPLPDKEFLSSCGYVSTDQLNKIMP
Protocol: (§1) For GHR-Jak2 co-immunoprecipitations, the cells were lysed in 20 mM Tris pH 8.0, 150 mM NaCl, 0.5% NP40, 1 mM PMSF, […]. Cell lysates were centrifuged to pellet the nuclei and the supernatants were used for GHR isolation in 1% Triton X-100, 0.5% SDS,0.25% sodium deoxycholate, 0.5% BSA, and inhibitors via immune precipitation with anti-GHR and protein A beads. Immunoprecipitates were subjected to reducing SDS-PAGE and transferred to Immobilon-FL polyvinylidenedifluoride membrane (Millipore). Blots were immunostained with the indicated primary antibodies followed by Alexa Fluor 680, Alexa-800 IRDye conjugated anti-mouse or anti-rabbit antibodies. Detection was performed with an Odyssey system (LI-COR Biosciences).
In the primary screen we used soluble fos-zipped GHR cytosolic tails that act in signaling complexes if co-expressed with Jak2. Initially, 6 scenarios were anticipated that can lower these signals. In the discovery itinerary we used the flow cytometer assay twice to find drugs that act on the GH-induced Jak2/STAT5 pathway and not on the identical GM/CSF-driven pathway ( Figure 3 , Figure S8 ). As the GM/CSF-induced Jak2/STAT5 pathway was not affected by the 2 hit compounds (BM004 and BM012), that served as prototypes for the final analogue selection, we excluded the possibility that they act on the Jak2 signaling pathway directly (scenario 1). To test scenario 2 (inhibition of fos-GHRct expression), we treated GHR-expressing Hek293T cells with a selection of drugs from the cell proliferation studies and analyzed the GHR species. […] The ratio between the amounts of GHR in the ER and at the PM reflects a steady state of synthesis (ER) and transport to the PM followed by endocytosis and degradation in the lysosomes. […] Because both species diminished, the drugs either inhibit the synthesis of GHR molecules or induce rapid GHR degradation in the ER. To decide between these possibilities, we performed in vitro translation experiments. […]
Figure 7 Effect of drugs on protein synthesis. […] The blots were detected with anti-GHR(B). […]

[2] = target: T2, GHR (Oryctolagus cuniculus, UniProt P19941); assay: GHR and pY-GHR immunoblot in GHR-transfected Hek293 cells stimulated with GH; assay type: cell-based, rabbit; details: for GHR HEK cells (GHR at PM and in ER): 10 µM drugs overnight; for GHR pY HEK cells: GH 10-15 min before lysis, drugs overnight/20 h
T2 construct: expressed in transfected cells; host or cells: Hek293 / Hek293T cells
T2 sequence (P19941 19-638): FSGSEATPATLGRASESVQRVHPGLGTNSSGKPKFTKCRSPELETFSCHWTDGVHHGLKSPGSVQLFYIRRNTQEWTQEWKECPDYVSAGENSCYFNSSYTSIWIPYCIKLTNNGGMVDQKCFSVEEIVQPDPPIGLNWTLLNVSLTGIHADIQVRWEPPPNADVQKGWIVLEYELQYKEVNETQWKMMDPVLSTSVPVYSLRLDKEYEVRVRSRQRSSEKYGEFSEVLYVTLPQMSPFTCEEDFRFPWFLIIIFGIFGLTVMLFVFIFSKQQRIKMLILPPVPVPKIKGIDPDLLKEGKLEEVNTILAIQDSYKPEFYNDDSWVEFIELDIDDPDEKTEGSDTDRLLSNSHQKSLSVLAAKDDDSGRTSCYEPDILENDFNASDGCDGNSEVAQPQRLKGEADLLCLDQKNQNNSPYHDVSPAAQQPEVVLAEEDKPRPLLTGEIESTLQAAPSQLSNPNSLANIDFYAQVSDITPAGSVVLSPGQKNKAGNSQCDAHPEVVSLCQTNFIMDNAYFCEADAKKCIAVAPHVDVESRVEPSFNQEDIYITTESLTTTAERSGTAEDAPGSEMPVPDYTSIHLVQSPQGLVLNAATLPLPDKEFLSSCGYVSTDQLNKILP
Protocol: as §1
In the primary screen we used soluble fos-zipped GHR cytosolic tails that act in signaling complexes if co-expressed with Jak2. Initially, 6 scenarios were anticipated that can lower these signals. In the discovery itinerary we used the flow cytometer assay twice to find drugs that act on the GH-induced Jak2/STAT5 pathway and not on the identical GM/CSF-driven pathway ( Figure 3 , Figure S8 ). As the GM/CSF-induced Jak2/STAT5 pathway was not affected by the 2 hit compounds (BM004 and BM012), that served as prototypes for the final analogue selection, we excluded the possibility that they act on the Jak2 signaling pathway directly (scenario 1). To test scenario 2 (inhibition of fos-GHRct expression), we treated GHR-expressing Hek293T cells with a selection of drugs from the cell proliferation studies and analyzed the GHR species. […] The ratio between the amounts of GHR in the ER and at the PM reflects a steady state of synthesis (ER) and transport to the PM followed by endocytosis and degradation in the lysosomes. […] Because both species diminished, the drugs either inhibit the synthesis of GHR molecules or induce rapid GHR degradation in the ER. To decide between these possibilities, we performed in vitro translation experiments. […] To exclude scenario 3 (inhibition of the GHR : Jak2 interaction) we replaced the proline residues in box-1 (the binding site for Jak2) with alanine residues. […] These findings render scenarios 4-6 (increased degradation of fos-pGHRct, increased degradation of Jak2, and dephosphorylation of fos-pGHRct) unlikely.
Figure 7 Effect of drugs on protein synthesis. (A): Effect of compounds on GHR. […] The amounts of GHR both at the plasma membrane (PM) and in the ER (ER) were decreased in the drug-treated cells. […] The cells were treated for GH for 10 min before lysis to be able to monitor the pY signals, after GHR isolation by immunoprecipitation (middle panels). The effect of the drugs on the pY signals reflected those of the GHR levels (only PM species were visible). In the presence of Ruxolitinib, the protein levels were unchanged, while the pY label (middle panel) was absent. […] This experiment represents the results of 6 independent repeats. (B): BM001 concentration effects on the synthesis of fos-GHRct in a HeLa cell cell-free system. […] In the right panel the 4 proline residues in box-1 were replaced by alanine residues. Empty vector (pcDNA) was used as control. The blots were detected with anti-GHR(B). The in vitro translation was performed 5 times that all show a clear inhibitory effect of BM001 on the GHR signal. (C): Effect of selected drugs on GHR levels in human lymphoblasts. IM‐9 human B lymphoblasts express endogenous GHR. […]

Structure (SMILES) | GHR HEK cells (GHR at PM and in ER) [2] | levels of GHR [1] | GHR pY HEK cells [2] | further results
Cc1nc(N)nc(N)c1/C=C/C1(c2ccc(C(F)(F)F)cc2)CC1 [BM001] | strongest effect |  |  | GHR in IM-9 cells ([1]; drugs 4 hrs): depleted
COc1cc(CN(C)c2ccc3nc(N)nc(N)c3c2)cc(OC)c1OC [BM003] |  | ~ 60% |  | 
Cc1nc(N)nc(N)c1C#CC1(c2ccc(Cl)cc2)CC1 [BM004] |  |  | reduced | 
N#CC[C@H](C1CCCC1)n1cc(-c2ncnc3[nH]ccc23)cn1 [Ruxolitinib, reference compound] | unchanged |  | absent | 

Further lines, with some results ahead:

GHR HEK cells (GHR at PM and in ER) [2] | levels of GHR [1] | GHR pY HEK cells [2] | Structure (SMILES) | further results
 | ~ 60% |  | Cc1c(-c2cccc(C#N)c2)ccc2nc(N)nc(N)c12 [BM002] | 
 |  | reduced | CCOc1cccc2nc(N)nc(N)c12 [BM012] | 

From PMC9365994, “Small molecules to regulate the GH/IGF1 axis by inhibiting the growth hormone receptor synthesis” (Frontiers in Endocrinology, 2022)
